Laboratory results as given in article PMC7486443, “Generation of Phenothiazine with Potent Anti-TLK1 Activity for Prostate Cancer Therapy” (iScience, 2020).

How the values were obtained:
Assay in all cases: biochemical
Design in all cases: DiscoverX KINOMEscan scanMAX competition binding panel, single concentration, percent of control; remaining binding: dose or concentration left out as unconfirmed
Settings in all cases: KINOMEscan binding, percent of control; read-out: Table S4_SCANMAX REPORT - related to Fig. 1 / Percent Control
ALK(C1156Y) = ALK(C1156Y) (Homo sapiens, UniProt Q9UM73, C1156Y)
BMPR1B = BMPR1B (Homo sapiens, UniProt O00238)
BMPR2 = BMPR2 (Homo sapiens, UniProt Q13873)
CDKL3 = CDKL3 (Homo sapiens, UniProt Q8IVW4)
EGFR(S752-I759del) = EGFR(S752-I759del) (Homo sapiens, UniProt P00533, DEL752-759)
EPHA5 = EPHA5 (Homo sapiens, UniProt P54756)
FER = FER (Homo sapiens, UniProt P16591)
KIT(V559D,V654A) = KIT(V559D,V654A) (Homo sapiens, UniProt P10721, V559D/V654A)
MAP3K15 = MAP3K15 (Homo sapiens, UniProt Q6ZN16)
MAPKAPK5 = MAPKAPK5 (Homo sapiens, UniProt Q8IW41)
MEK4 = target: T1, MEK4 (Homo sapiens, UniProt P45985)
T1 construct: gene MAP2K4

MERTK = MERTK (Homo sapiens, UniProt Q12866)
NEK10 = NEK10 (Homo sapiens, UniProt Q6ZWH5)
PAK3 = PAK3 (Homo sapiens, UniProt O75914)
PHKG1 = PHKG1 (Homo sapiens, UniProt Q16816)
PIK3CA = PIK3CA (Homo sapiens, UniProt P42336)
RET(V804M) = RET(V804M) (Homo sapiens, UniProt P07949, V804M)
YSK1 = target: T2, YSK1 (Homo sapiens, UniProt O00506)
T2 construct: gene STK25
T2 sequence (O00506 whole entry): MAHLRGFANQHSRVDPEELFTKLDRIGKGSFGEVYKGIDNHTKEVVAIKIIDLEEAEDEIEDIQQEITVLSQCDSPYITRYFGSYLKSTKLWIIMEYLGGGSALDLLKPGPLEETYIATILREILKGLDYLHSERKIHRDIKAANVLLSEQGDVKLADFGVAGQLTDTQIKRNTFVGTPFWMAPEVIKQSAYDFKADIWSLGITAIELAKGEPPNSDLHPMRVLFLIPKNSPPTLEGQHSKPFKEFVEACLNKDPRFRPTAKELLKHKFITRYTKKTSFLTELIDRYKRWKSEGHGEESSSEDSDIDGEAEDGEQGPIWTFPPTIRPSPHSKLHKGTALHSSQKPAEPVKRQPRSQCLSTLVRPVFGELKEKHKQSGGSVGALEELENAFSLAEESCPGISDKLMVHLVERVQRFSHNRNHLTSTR

T1 sequence (P45985 whole entry): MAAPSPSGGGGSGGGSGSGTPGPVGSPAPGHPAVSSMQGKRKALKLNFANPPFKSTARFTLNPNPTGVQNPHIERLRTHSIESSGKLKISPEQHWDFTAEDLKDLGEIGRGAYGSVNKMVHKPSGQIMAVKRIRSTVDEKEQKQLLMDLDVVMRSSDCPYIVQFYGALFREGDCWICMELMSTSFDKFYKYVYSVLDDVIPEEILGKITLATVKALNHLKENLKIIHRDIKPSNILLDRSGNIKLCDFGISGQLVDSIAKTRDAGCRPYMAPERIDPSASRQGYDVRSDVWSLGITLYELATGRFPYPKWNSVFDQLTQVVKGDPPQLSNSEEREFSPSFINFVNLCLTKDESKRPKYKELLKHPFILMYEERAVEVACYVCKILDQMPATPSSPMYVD
Chain of FER (P16591 whole entry): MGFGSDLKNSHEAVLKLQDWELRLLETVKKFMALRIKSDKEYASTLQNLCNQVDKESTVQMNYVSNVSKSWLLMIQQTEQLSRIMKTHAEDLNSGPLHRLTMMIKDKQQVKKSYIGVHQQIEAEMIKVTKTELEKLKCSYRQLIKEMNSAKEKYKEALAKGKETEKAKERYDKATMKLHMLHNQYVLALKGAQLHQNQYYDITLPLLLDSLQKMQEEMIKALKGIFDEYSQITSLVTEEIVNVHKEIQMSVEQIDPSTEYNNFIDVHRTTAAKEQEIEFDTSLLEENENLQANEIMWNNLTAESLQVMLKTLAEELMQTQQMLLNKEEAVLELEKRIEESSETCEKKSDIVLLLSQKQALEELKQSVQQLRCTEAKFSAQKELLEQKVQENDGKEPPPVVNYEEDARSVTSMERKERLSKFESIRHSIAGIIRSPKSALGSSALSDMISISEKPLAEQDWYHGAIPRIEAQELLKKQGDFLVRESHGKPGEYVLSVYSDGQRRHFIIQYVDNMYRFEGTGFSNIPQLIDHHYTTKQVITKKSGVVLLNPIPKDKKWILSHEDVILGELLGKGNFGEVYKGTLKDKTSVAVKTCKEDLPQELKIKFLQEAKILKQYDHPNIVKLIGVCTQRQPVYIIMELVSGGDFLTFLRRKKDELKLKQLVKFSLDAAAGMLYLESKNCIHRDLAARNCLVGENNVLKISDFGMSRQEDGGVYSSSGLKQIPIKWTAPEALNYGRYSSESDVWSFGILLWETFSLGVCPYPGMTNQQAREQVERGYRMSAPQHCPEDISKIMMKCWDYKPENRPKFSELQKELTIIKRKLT
Chain of PAK3 (O75914 whole entry): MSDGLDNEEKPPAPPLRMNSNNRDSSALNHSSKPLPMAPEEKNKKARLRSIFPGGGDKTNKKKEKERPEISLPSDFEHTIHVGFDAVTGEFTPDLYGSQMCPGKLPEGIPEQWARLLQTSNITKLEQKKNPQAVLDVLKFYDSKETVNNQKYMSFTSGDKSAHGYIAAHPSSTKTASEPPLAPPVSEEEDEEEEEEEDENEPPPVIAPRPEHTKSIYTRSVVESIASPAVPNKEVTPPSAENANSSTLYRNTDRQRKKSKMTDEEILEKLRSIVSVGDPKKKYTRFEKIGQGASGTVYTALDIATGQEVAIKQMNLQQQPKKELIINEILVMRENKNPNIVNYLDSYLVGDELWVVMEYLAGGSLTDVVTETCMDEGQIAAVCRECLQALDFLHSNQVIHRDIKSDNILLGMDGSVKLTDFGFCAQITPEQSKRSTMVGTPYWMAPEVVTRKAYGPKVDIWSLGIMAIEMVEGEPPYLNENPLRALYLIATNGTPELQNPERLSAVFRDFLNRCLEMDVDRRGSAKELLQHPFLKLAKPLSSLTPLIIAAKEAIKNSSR
Chain of KIT(V559D,V654A) (P10721 whole entry V559D/V654A): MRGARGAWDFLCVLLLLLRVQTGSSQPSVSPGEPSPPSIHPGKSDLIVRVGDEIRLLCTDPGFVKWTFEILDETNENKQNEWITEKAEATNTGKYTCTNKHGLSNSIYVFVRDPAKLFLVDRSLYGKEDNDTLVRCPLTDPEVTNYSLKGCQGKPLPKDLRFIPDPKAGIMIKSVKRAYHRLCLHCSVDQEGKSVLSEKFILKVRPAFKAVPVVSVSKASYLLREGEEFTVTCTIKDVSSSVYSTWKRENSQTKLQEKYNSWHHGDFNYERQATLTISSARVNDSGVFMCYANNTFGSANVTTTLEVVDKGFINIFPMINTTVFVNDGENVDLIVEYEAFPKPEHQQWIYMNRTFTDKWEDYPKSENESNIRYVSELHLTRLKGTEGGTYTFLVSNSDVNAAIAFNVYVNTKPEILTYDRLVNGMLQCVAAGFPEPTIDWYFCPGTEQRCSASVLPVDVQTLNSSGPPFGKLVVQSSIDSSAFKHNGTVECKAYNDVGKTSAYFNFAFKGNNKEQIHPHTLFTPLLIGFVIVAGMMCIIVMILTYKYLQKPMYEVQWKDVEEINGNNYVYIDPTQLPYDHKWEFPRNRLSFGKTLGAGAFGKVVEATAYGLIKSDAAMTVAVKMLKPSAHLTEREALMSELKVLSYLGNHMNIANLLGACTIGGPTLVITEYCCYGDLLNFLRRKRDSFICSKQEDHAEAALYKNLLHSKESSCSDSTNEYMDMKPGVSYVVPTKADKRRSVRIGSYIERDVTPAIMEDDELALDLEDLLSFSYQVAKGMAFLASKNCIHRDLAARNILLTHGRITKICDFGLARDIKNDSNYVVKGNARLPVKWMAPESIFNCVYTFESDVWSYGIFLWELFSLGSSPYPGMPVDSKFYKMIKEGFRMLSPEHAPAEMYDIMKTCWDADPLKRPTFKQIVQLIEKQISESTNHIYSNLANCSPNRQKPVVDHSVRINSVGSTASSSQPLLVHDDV
Chain of EPHA5 (P54756 whole entry): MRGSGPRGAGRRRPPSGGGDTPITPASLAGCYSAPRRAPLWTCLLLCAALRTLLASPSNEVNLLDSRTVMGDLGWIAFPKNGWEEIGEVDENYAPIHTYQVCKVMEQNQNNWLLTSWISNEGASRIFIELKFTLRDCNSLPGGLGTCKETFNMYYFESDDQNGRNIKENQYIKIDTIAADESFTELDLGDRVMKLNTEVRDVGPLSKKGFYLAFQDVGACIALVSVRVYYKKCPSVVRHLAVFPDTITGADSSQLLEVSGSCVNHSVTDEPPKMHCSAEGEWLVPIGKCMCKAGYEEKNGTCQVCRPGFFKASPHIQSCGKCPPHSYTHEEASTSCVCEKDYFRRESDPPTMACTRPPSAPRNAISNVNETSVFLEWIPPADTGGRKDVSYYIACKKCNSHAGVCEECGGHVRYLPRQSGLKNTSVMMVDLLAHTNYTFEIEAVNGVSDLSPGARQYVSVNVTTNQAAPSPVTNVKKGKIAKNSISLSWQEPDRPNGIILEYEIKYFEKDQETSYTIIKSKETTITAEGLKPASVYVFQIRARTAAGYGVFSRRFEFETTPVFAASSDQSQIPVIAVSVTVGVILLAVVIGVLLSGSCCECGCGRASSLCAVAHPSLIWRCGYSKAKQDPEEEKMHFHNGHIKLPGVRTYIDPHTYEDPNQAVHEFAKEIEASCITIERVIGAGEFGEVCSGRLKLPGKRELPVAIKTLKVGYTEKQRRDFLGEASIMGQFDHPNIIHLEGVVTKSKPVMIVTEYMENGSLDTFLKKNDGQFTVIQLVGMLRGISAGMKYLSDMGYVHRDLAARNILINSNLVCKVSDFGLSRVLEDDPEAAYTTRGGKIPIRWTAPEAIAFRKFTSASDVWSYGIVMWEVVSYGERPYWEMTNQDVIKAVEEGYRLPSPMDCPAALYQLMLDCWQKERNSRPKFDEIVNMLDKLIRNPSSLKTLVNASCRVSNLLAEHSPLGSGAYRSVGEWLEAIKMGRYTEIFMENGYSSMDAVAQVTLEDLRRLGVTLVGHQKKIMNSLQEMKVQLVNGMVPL
Chain of BMPR1B (O00238 whole entry): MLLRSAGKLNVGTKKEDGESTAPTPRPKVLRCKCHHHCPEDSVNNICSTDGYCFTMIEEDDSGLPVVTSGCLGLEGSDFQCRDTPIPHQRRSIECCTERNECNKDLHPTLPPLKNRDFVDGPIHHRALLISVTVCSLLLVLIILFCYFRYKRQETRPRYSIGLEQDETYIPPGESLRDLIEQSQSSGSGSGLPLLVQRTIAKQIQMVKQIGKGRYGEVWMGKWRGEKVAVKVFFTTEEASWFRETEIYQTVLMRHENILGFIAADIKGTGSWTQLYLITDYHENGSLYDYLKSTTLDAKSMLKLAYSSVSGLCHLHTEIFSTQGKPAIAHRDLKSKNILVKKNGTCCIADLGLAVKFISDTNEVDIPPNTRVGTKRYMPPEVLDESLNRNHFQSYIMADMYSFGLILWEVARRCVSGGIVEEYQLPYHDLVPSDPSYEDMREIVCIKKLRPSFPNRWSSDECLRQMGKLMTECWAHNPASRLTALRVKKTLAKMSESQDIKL

Q: `c1ccc2c(c1)Sc1ccccc1N2CCN1CCOCC1` [J54] was tested. Which remaining binding (ALK(C1156Y)) did it give?
A: Its remaining binding is 100%.

Q: What about the remaining binding (BMPR1B) of the same molecule?
A: The remaining binding was 93%.

Q: What about the remaining binding (BMPR2) of the same molecule?
A: The remaining binding was 100%.

Q: What about the remaining binding (CDKL3) of the same molecule?
A: Its remaining binding is 100%.

Q: What about the remaining binding (EGFR(S752-I759del)) of the same molecule?
A: Its remaining binding is 94%.

Q: And the remaining binding (EPHA5)?
A: Its remaining binding is 100%.

Q: What about the remaining binding (FER) of the same molecule?
A: The remaining binding was 100%.

Q: And the remaining binding (KIT(V559D,V654A))?
A: The remaining binding was 99%.

Q: What about the remaining binding (MAP3K15) of the same molecule?
A: Its remaining binding is 100%.

Q: And the remaining binding (MAPKAPK5)?
A: The remaining binding was 100%.

Q: And the remaining binding (MEK4)?
A: Its remaining binding is 100%.

Q: What about the remaining binding (MERTK) of the same molecule?
A: Its remaining binding is 100%.

Q: What about the remaining binding (NEK10) of the same molecule?
A: Its remaining binding is 97%.

Q: And the remaining binding (PAK3)?
A: The remaining binding was 100%.

Q: And the remaining binding (PHKG1)?
A: The remaining binding was 100%.

Q: And the remaining binding (PIK3CA)?
A: The remaining binding was 94%.

Q: What about the remaining binding (RET(V804M)) of the same molecule?
A: The remaining binding was 100%.

Q: What about the remaining binding (YSK1) of the same molecule?
A: The remaining binding was 97%.
